SMILES strings stand for the structures. Non-standard residues stand in square brackets, D forms with d. Residues, ends and D or L forms follow the SMILES beside them. pY = N[C@@H](Cc1ccc(OP(=O)(O)O)cc1)C(=O)O

Common to all, as to assay: biochemical
Type in all cases: binding

Test [1] has as its target T1, GADS (Homo sapiens, UniProt O75791).
T1 construct: the DNA-tagged SH2 domain concentrations used in this study were <0.1 nM; made in house; host or cells: HEK293 (transient transfection; unpurified extract)
T1 sequence (O75791 58-149 limits assumed): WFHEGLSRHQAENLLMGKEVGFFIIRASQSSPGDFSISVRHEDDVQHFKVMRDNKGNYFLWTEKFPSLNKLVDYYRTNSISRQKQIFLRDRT

The target in test [2] is T2, HSH2D (Homo sapiens, UniProt Q96JZ2).
T2 construct: the DNA-tagged SH2 domain concentrations used in this study were <0.1 nM; made in house; host or cells: HEK293 (transient transfection, unpurified extract)
T2 sequence (Q96JZ2 34-125 limits assumed): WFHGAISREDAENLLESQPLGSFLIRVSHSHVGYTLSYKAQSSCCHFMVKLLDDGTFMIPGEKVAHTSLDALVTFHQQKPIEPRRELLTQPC

Test [3] addresses T3, GRB7 (Homo sapiens, UniProt Q14451).
T3 construct: the DNA-tagged SH2 domain concentrations used in this study were <0.1 nM; made in house; host or cells: HEK293 (transient transfection; unpurified extract)

In test [4] the target is T4, CSK (Homo sapiens, UniProt P41240).
T4 construct: the DNA-tagged SH2 domain concentrations used in this study were <0.1 nM; made in house; host or cells: HEK293 (transient transfection; unpurified extract)
T4 sequence (P41240 82-171 limits assumed): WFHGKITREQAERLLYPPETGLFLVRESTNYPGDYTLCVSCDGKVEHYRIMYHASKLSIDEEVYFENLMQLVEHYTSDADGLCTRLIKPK

The target of test [5] is T5, ABL2 (Homo sapiens, UniProt P42684).
T5 construct: the DNA-tagged SH2 domain concentrations used in this study were <0.1 nM; made in house; host or cells: HEK293 (transient transfection; unpurified extract)
T5 sequence (P42684 173-263 limits assumed): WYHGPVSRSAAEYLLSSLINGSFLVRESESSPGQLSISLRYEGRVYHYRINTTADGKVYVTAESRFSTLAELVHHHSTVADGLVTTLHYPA

The target of test [6] is T6, FRK (Homo sapiens, UniProt P42685).
T6 construct: the DNA-tagged SH2 domain concentrations used in this study were <0.1 nM; made in house; host or cells: HEK293 (transient transfection; unpurified extract)
T6 sequence (P42685 116-208 limits assumed): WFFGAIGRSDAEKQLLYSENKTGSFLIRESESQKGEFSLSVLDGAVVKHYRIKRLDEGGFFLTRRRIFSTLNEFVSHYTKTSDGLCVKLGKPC
Particulars: dose-response; read-out: KD.

T3 sequence (Q14451 431-527 limits assumed): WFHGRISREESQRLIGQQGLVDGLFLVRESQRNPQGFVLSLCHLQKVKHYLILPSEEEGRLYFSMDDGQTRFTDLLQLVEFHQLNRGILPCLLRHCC

Broadly, the Kd is the free concentration of one partner at which half of the binding sites on the other are occupied at equilibrium, for simple one-to-one binding. As for `CSCC[C@H](NC(=O)[C@H](Cc1ccc(OP(=O)(O)O)cc1)NC(=O)[C@H](CC(=O)O)NC(=O)[C@H](CO)NC(C)=O)C(=O)N[C@@H](CC(N)=O)C(=O)N[C@@H](CCSC)C(=O)N[C@H](C(=O)N1CCC[C@H]1C(=O)N[C@@H](CCCNC(=N)N)C(=O)N[C@@H](CCCNC(=N)N)C(=O)N1CCC[C@H]1C(N)=O)[C@@H](C)O` (Ac-SD[pY]MNMTPRRP-NH2), the results for the Kd in test [1] and in test [2] were 244 ± 73.3 nM and 873 ± 159 nM, respectively.

On to `CC(=O)N1CCC[C@H]1C(=O)N[C@@H](CCC(=O)O)C(=O)N[C@@H](Cc1ccc(OP(=O)(O)O)cc1)C(=O)N[C@H](C(=O)N[C@@H](CC(N)=O)C(=O)N[C@@H](CCC(N)=O)C(N)=O)C(C)C` [Ac-PEpYVNQ-NH2] (Ac-PE[pY]VNQ-NH2), for which, in test [3], the Kd came to 4470 ± 557 nM.

With `CC[C@H](C)[C@H](NC(C)=O)C(=O)N[C@@H](CO)C(=O)N[C@@H](C)C(=O)N[C@@H](CCSC)C(=O)N[C@@H](Cc1ccc(OP(=O)(O)O)cc1)C(=O)N[C@@H](CO)C(=O)N[C@@H](CO)C(=O)N[C@H](C(=O)N[C@@H](CCSC)C(=O)N[C@@H](CCCCN)C(N)=O)C(C)C` [Ac-ISAMpYSSVMK-NH2] (Ac-ISAM[pY]SSVMK-NH2), in test [4], binding was characterised by a dissociation constant (Kd) of 48.3 ± 8.04 nM.

For the compound `CC[C@H](C)[C@H](NC(=O)[C@@H]1CCCN1C(=O)[C@H](CO)NC(=O)[C@H](CO)NC(C)=O)C(=O)N[C@@H](Cc1ccc(OP(=O)(O)O)cc1)C(=O)N[C@@H](CCC(=O)O)C(=O)N[C@@H](CC(=O)O)C(=O)N[C@@H](C)C(=O)N[C@@H](C)C(N)=O` [Ac-SSPIpYEDAA-NH2] (Ac-SSPI[pY]EDAA-NH2), the Kd in test [5] came out at 6200 ± 584 nM.

As for `CC[C@H](C)[C@H](NC(=O)[C@@H]1CCCN1C(=O)[C@@H](NC(=O)[C@H](CCC(=O)O)NC(=O)[C@H](CCC(=O)O)NC(=O)[C@H](Cc1ccc(OP(=O)(O)O)cc1)NC(=O)[C@H](CCC(N)=O)NC(=O)[C@@H]1CCCN1C(=O)[C@H](CCC(=O)O)NC(C)=O)[C@@H](C)CC)C(=O)N[C@@H](CCCCN)C(=O)N[C@@H](CCC(N)=O)C(N)=O` (Ac-EPQ[pY]EEIPIKQ-NH2), the Kd in test [6] was 6980 ± 1930 nM.
